Paper PMC13544220, “Glycemic and bodyweight effects of GIPR coding variation reflect differences in surface expression and intrinsic functional impairment” (Science Advances, 2026)

What was measured:
[1] = tested on: wild-type and variant SNAP-GIPR; experiment: Mini-Gs recruitment (nanoBiT) in AD293 cells; assay type: cell-based, human; details: 100 nM GIP, mean, n=7
Description: AD293 cells were reverse transfected with the GIPR variant or wild-type plasmids plus mini-Gs-LgBiT in a 1:1 ratio using Lipofectamine 2000 in 96-well white-bottom microplates precoated with 0.01% poly-D-lysine. All variants were tested in parallel on each occasion to control for transfection efficiency differences between experiments. After 24 hours, media were removed, cells washed once, and HBSS (Hanks’ balanced salt solution) containing furimazine (Promega, UK) at a 1:100 dilution was added. […] Responses were quantified by as fractional change from baseline with subtraction of the response to vehicle to account for substrate depletion, from which the AUC (area under the curve) was calculated and scaled to the average response obtained from each experiment.

[2] = tested on: wild-type and variant SNAP-GIPR; experiment: cAMP concentration response (HTRF) in AD293 cells, SNAP-GIPR; assay type: cell-based, human
Description: (Imperial College London): 24 hours before the experiment, AD293 cells were reverse transfected with the GIPR variant or wild-type plasmids using Lipofectamine 2000 in 12-well plates. All variants were tested in parallel on each occasion to control for transfection efficiency differences between experiments. […] Data were fit using a three-parameter logistic model using GraphPad Prism 10.

With `CC[C@H](C)[C@H](NC(=O)[C@H](CO)NC(=O)[C@H](Cc1ccc(O)cc1)NC(=O)[C@H](CC(=O)O)NC(=O)[C@H](CO)NC(=O)[C@@H](NC(=O)[C@H](Cc1ccccc1)NC(=O)[C@@H](NC(=O)CNC(=O)[C@H](CCC(=O)O)NC(=O)[C@H](C)NC(=O)[C@@H](N)Cc1ccc(O)cc1)[C@@H](C)O)[C@@H](C)CC)C(=O)N[C@@H](C)C(=O)N[C@@H](CCSC)C(=O)N[C@@H](CC(=O)O)C(=O)N[C@@H](CCCCN)C(=O)N[C@H](C(=O)N[C@@H](Cc1c[nH]cn1)C(=O)N[C@@H](CCC(N)=O)C(=O)N[C@@H](CCC(N)=O)C(=O)N[C@@H](CC(=O)O)C(=O)N[C@@H](Cc1ccccc1)C(=O)N[C@H](C(=O)N[C@@H](CC(N)=O)C(=O)N[C@@H](Cc1c[nH]c2ccccc12)C(=O)N[C@@H](CC(C)C)C(=O)N[C@@H](CC(C)C)C(=O)N[C@@H](C)C(=O)N[C@@H](CCC(N)=O)C(=O)N[C@@H](CCCCN)C(=O)NCC(=O)N[C@@H](CCCCN)C(=O)N[C@@H](CCCCN)C(=O)N[C@@H](CC(N)=O)C(=O)N[C@@H](CC(=O)O)C(=O)N[C@@H](Cc1c[nH]c2ccccc12)C(=O)N[C@@H](CCCCN)C(=O)N[C@@H](Cc1c[nH]cn1)C(=O)N[C@@H](CC(N)=O)C(=O)N[C@H](C(=O)N[C@H](C(=O)N[C@@H](CCC(N)=O)C(=O)O)[C@@H](C)O)[C@@H](C)CC)C(C)C)[C@@H](C)CC` [GIP, glucose-dependent insulinotropic polypeptide, reference compound] the mini-Gs recruitment ([1]; A207V) was 1.64 vs. experimental average, the mini-Gs recruitment ([1]; A268V) was 1.037 vs. experimental average and the mini-Gs recruitment ([1]; D66G) was 0.1098 vs. experimental average. The mini-Gs recruitment ([1]; E252D) was 1.347 vs. experimental average, the mini-Gs recruitment ([1]; E288G) was 0.1501 vs. experimental average and the mini-Gs recruitment ([1]; E354Q) was 1.309 vs. experimental average. It also gave a mini-Gs recruitment ([1]; E463Q) of 1.656 vs. experimental average, a mini-Gs recruitment ([1]; G438S) of 1.599 vs. experimental average and a mini-Gs recruitment ([1]; I378M) of 1.145 vs. experimental average. The mini-Gs recruitment ([1]; I403V) was 1.332 vs. experimental average, the mini-Gs recruitment ([1]; L100F) was 1.391 vs. experimental average and the mini-Gs recruitment ([1]; L262H) was 1.034 vs. experimental average. The mini-Gs recruitment ([1]; L262V) was 1.282 vs. experimental average, the mini-Gs recruitment ([1]; L304R) was 0.04884 vs. experimental average and the mini-Gs recruitment ([1]; R101H) was 0.1049 vs. experimental average. The mini-Gs recruitment ([1]; R131S) was 1.232 vs. experimental average, the mini-Gs recruitment ([1]; R136W) was 0.7709 vs. experimental average and the mini-Gs recruitment ([1]; R183Q) was 0.3712 vs. experimental average. It also gave a mini-Gs recruitment ([1]; R190Q) of -0.001793 vs. experimental average, a mini-Gs recruitment ([1]; R196G) of 1.201 vs. experimental average and a mini-Gs recruitment ([1]; R217L) of 1.091 vs. experimental average. For the same molecule, the mini-Gs recruitment ([1]; R300W) was 1.262 vs. experimental average, the mini-Gs recruitment ([1]; R336P) was 1.585 vs. experimental average and the mini-Gs recruitment ([1]; R341P) was 0.3717 vs. experimental average. For the same molecule, the mini-Gs recruitment ([1]; R404H) was 1.074 vs. experimental average, the mini-Gs recruitment ([1]; S64A) was 0.6095 vs. experimental average and the mini-Gs recruitment ([1]; S415G) was 1.199 vs. experimental average. The mini-Gs recruitment ([1]; S415I) was 1.365 vs. experimental average, the mini-Gs recruitment ([1]; S447T) was 1.5239 vs. experimental average and the mini-Gs recruitment ([1]; T116R) was 0.9756 vs. experimental average. The mini-Gs recruitment ([1]; WT) was 1.184 vs. experimental average, the “cAMP signaling (∆LogEmax/EC50)” value ([2]; AD293, SNAP-GIPR E288G, R190Q, R101H, 0.1% BSA) was “markedly reduced responses” and the cAMP agonism ([2]; AD293, SNAP-GIPR R101H and R190Q) was “very weak agonists”. For the same molecule, the “cAMP signaling (∆LogEmax/EC50)” value ([2]; AD293, SNAP-GIPR S64A, R136W, R217L, vs wild-type) was “moderately reduced”.
